Measured values taken from ChEMBL document CHEMBL5303708, “ECBD screening data for assay EOS300033” (2021).
Residues, ends and D or L forms follow the SMILES beside them. *: point of attachment. Cbz = O=C(OCc1ccccc1)*

test system: SARS-CoV-2; parameters: species or system Chlorocebus sabaeus, Vero C1008; conditions: assay_design cell number determination; assay_format cell based format; assay_stage confirmatory assay; assaysupport stable transfection; bao_tags Fluorescence imaging cell growth inhibition assay; bioassay Fluorescence imaging cell growth inhibition assay; bioassay_setting in vitro; bioassay_type functional; detectioninstrument ArrayScan XTI HCS Reader; detectionmethod fluorescence microscopy

Q: Which IC50 relative does the source give for `O=C(Nc1ccc(Cl)c(Cl)c1)Nc1ccc(Cl)c(Cl)c1` here?
A: 5.12 µM

Q: With `Nc1nc(S)c2ncn(C3OC(CO)C(O)C3O)c2n1` (stereo not drawn) as the compound, how does the IC50 relative read?
A: 16.2319 µM

Q: Which IC50 relative does the source give for `CS(=O)(=O)O.Cc1c(C(=O)c2cccc3ccccc23)c2cccc3c2n1[C@H](CN1CCOCC1)CO3` here?
A: 11.9328 µM

Q: How did the IC50 relative turn out when `CC(C)(C)C(=O)/C(=C/c1cccc([N+](=O)[O-])c1)n1cncn1` was run?
A: 4.9629 µM

Q: `COc1cc(/C=C2\SC(=O)NC2=O)ccc1Oc1ccc(C#N)cc1C(F)(F)F` was tested. Which IC50 relative did it give?
A: 49.4361 µM

Q: `COc1cc2c(NC3CCN(C4CCCCC4)CC3)nc(N3CCCN(C(C)C)CC3)nc2cc1OCCCN1CCCCC1` was tested. Which IC50 relative did it give?
A: 17.2224 µM

Q: Which IC50 relative does the source give for `O=c1cc(N2CCOCC2)oc2c(-c3cccc4c3sc3ccccc34)cccc12` here?
A: 145.964 µM

Q: Which IC50 relative does the source give for `CC(C)(C)c1cc(C=C(C#N)C#N)cc(Br)c1O` here?
A: 7.2055 µM

Q: `CC(C)(C)c1ccccc1Oc1ncccc1NC(=O)Nc1ccc(OC(F)(F)F)cc1` was tested. Which IC50 relative did it give?
A: 9.5826 µM

Q: Which IC50 relative does the source give for `C/C(=C\c1ccc(C(=O)O)cc1)c1ccc2c(c1)C(C)(C)CCC2(C)C` here?
A: 54.1303 µM

Q: For `COc1cc2ncnc(Nc3cccc(Br)c3)c2cc1OC`, which IC50 relative is on record?
A: 13.3328 µM

Q: With `Nc1ncnc2c1ncn2[C@@H]1CC[C@@H](O)[C@H]1O` as the compound, how does the IC50 relative read?
A: 3.6981 µM

Q: Which IC50 relative does the source give for `C[C@@H]1COCCN1c1cc(=O)n2c(n1)N(Cc1cncc(Cl)c1)[C@H](C(F)(F)F)CC2` here?
A: 19.8832 µM

Q: For `O=C(C1CC1)N1CC[C@@H](Cc2n[nH]c(=O)n2-c2ccc(-c3ccc4occc4c3)cc2)C1`, which IC50 relative is on record?
A: 32.5565 µM

Q: `CCN(CC)c1ccc2cc(-c3nc4ccccc4[nH]3)c(=O)oc2c1` was tested. Which IC50 relative did it give?
A: 0.3531 µM

Q: For `Nc1ncc(-c2ccnc(Nc3ccncc3)n2)c(CC2CC2)n1`, which IC50 relative is on record?
A: 12.577 µM

Q: With `CC(C)(O)CNc1ncc(-c2ccnc(Nc3ccnc(Cl)c3)n2)c(CC2CC2)n1` as the compound, how does the IC50 relative read?
A: 793.9225 µM

Q: Which IC50 relative does the source give for `CCCCn1c(NC(=O)c2cccs2)c(C#N)c2nc3ccccc3nc21` here?
A: 13.3332 µM

Q: Which IC50 relative does the source give for `Cl.O=C(O)Cc1cccc(OCCCN(Cc2cccc(C(F)(F)F)c2Cl)CC(c2ccccc2)c2ccccc2)c1` here?
A: 16.3401 µM

Q: How did the IC50 relative turn out when `CCc1c(-c2ccc3[nH]ncc3c2)cnc(N)c1-c1ccc(O)cc1` was run?
A: 51.0608 µM

Q: Which IC50 relative does the source give for `Cc1ccc(Oc2nc3cc(-c4ccc(-c5ccccc5)cc4)c(Cl)cc3[nH]2)cc1C(=O)O` here?
A: 351.9839 µM

Q: With `N#Cc1cccc(C#N)c1-c1nc2c3ccc(Cl)cc3c3ccccc3c2[nH]1` as the compound, how does the IC50 relative read?
A: 15.4145 µM

Q: For `COc1ccc(-c2c[nH]c3nccc(-c4ccsc4)c23)c(OC)c1`, which IC50 relative is on record?
A: 28.2582 µM

Q: `O=C(O)c1ccc(N2C(=O)/C(=C\c3ccc(-c4ccc([N+](=O)[O-])cc4)o3)C=C2c2ccccc2)cc1` was tested. Which IC50 relative did it give?
A: 651.6971 µM

Q: With `Cl.Cl.N[C@H]1CC[C@H](N[C@@H]2C[C@H]2c2ccccc2)CC1` as the compound, how does the IC50 relative read?
A: 65.2065 µM

Q: For `CS(=O)(=O)O.Cc1c(O)cccc1C(=O)NC(CSc1ccccc1)C(O)CN1CC2CCCCC2CC1C(=O)NC(C)(C)C` (stereo not drawn), which IC50 relative is on record?
A: 15.1399 µM

Q: How did the IC50 relative turn out when `Cl.O=C(c1c2ccccc2cc2ccccc12)N1CCC(N2CCC[C@@H](C(=O)N3CCOCC3)C2)CC1` was run?
A: 4.1627 µM

Q: For `Cc1cnc(Nc2ccc(F)cc2Cl)nc1-c1c[nH]c(C(=O)N[C@H](CO)c2cccc(Cl)c2)c1`, which IC50 relative is on record?
A: 9.1133 µM

Q: How did the IC50 relative turn out when `Nc1nc(O)c2[nH]nnc2n1` [8-AZAGUANINE] was run?
A: 3.8962 µM

Q: Which IC50 relative does the source give for `Nc1nc(N)c2nc(CNc3ccc(C(=O)N[C@@H](CCC(=O)O)C(=O)O)cc3)cnc2n1` [AMINOPTERIN] here?
A: 0.3554 µM

Q: With `CNCc1ccc(-c2cc(-c3nc(-c4ccc(S(=O)(=O)C(C)C)cc4)cnc3N)on2)cc1` [BERZOSERTIB] as the compound, how does the IC50 relative read?
A: 33.669 µM

Q: With `Oc1c(Cl)cc(Cl)cc1Sc1cc(Cl)cc(Cl)c1O` [BITHIONOL] as the compound, how does the IC50 relative read?
A: 17.6664 µM

Q: How did the IC50 relative turn out when `CCCCOCCOc1ccc(-c2ccc3c(c2)/C=C(/C(=O)Nc2ccc([S@@+]([O-])Cc4cncn4CCC)cc2)CCCN3CC(C)C)cc1` [CENICRIVIROC] was run?
A: 52.7809 µM

Q: How did the IC50 relative turn out when `C[C@@H]1C[C@@H]([C@H](O)CC2CC(=O)NC(=O)C2)C(=O)[C@@H](C)C1` [CYCLOHEXIMIDE] was run?
A: 2.4209 µM

Q: Which IC50 relative does the source give for `CC1=NN(c2ccc(C)c(C)c2)C(=O)/C1=N\Nc1cccc(-c2cccc(C(=O)O)c2)c1O` [ELTROMBOPAG] here?
A: 56.9757 µM

Q: For `COc1ccccc1[C@H](Cn1c(=O)n(C(C)(C)C(=O)O)c(=O)c2c(C)c(-c3ncco3)sc21)OC1CCOCC1` [FIRSOCOSTAT], which IC50 relative is on record?
A: 0.1223 µM

Q: `CC[n+]1c(-c2ccccc2)c2cc(N)ccc2c2ccc(N)cc21.[Br-]` [HOMIDIUM BROMIDE] was tested. Which IC50 relative did it give?
A: 96.2744 µM

Q: `CC(=O)[C@]1(O)Cc2c(O)c3c(c(O)c2[C@@H](O[C@H]2C[C@H](N)[C@H](O)[C@H](C)O2)C1)C(=O)c1ccccc1C3=O.Cl` [IDARUBICIN HYDROCHLORIDE] was tested. Which IC50 relative did it give?
A: 28.5706 µM

Q: For `CN(Cc1cnc2nc(N)nc(N)c2n1)c1ccc(C(=O)N[C@@H](CCC(=O)O)C(=O)O)cc1` [METHOTREXATE], which IC50 relative is on record?
A: 0.0551 µM

Q: How did the IC50 relative turn out when `CC(C)C[C@@H](C=O)NC(=O)[C@H](CC(C)C)NC(=O)[C@H](CC(C)C)NC(=O)OCc1ccccc1` [MG-132] (Cbz-Leu-Leu-Leu-aldehyde) was run?
A: 4.4656 µM

Q: With `COc1ccc2c(c1)[C@]1(C[C@H]1c1ccc3c(/C=C/c4ccc(CN5C[C@@H](C)O[C@@H](C)C5)cc4)n[nH]c3c1)C(=O)N2` [OCIFISERTIB] as the compound, how does the IC50 relative read?
A: 14.7188 µM

Q: Which IC50 relative does the source give for `C#CCC(Cc1cnc2nc(N)nc(N)c2n1)c1ccc(C(=O)N[C@@H](CCC(=O)O)C(=O)O)cc1` (stereo partly drawn) [PRALATREXATE] here?
A: 0.0052 µM

Q: Which IC50 relative does the source give for `Cn1c(Nc2ccc(C(F)(F)F)cc2)nc2cc(Oc3ccnc(-c4ncc(C(F)(F)F)[nH]4)c3)ccc21` [RAF-265] here?
A: 10.7684 µM

Q: For `CNC(=O)c1cc(Oc2ccc(NC(=O)Nc3ccc(Cl)c(C(F)(F)F)c3)c(F)c2)ccn1` [REGORAFENIB], which IC50 relative is on record?
A: 16.4573 µM

Q: How did the IC50 relative turn out when `CN(C)c1cccc(-c2c3c(=O)n(-c4ccccc4Cl)[nH]c3cc(=O)n2C)c1` [SETANAXIB] was run?
A: 73.5962 µM

Q: `O=C(Nc1ccc(Cl)cc1)Nc1ccc(Cl)c(Cl)c1` [TRICLOCARBAN] was tested. Which IC50 relative did it give?
A: 8.2868 µM

Q: For `COc1cc(NCc2ccc3nc(N)nc(N)c3c2C)cc(OC)c1OC` [TRIMETREXATE], which IC50 relative is on record?
A: 0.3486 µM

Q: With `CC(C)(C)c1cc(C=C(C#N)C#N)cc(C(C)(C)C)c1O` [TYRPHOSTIN A9] as the compound, how does the IC50 relative read?
A: 0.8215 µM
